Here are results for 2 molecules from US20240158740A1, “CELL CLUSTER PRODUCTION METHOD” (National University Corporation Tokyo Medical and Dental …, priority 2021, published 2024).

SMILES strings stand for the structures.

Common to all, as to format: cell-based
Assay [1] has as its system Human iPS cells (625A4) colonies. Description: Differentiation marker analysis of cell cluster by immunocytostaining after Wnt signal-inhibiting culture step (Day 2). The note with it: cell cluster of Day 2. As to the method:
Human iPS cells (625A4; Center for iPS Cell Research and Application (CiRA), Kyoto University) were cultured at 37° C. for 6 to 7 days under 5% CO2 in AK02N (Ajinomoto Co., Inc.) (10 cm dish; 8 ml, 24-well plate; 0.5 ml) to form iPS cell colonies of 500 to 700 μm in diameter. The obtained colonies were cultured at 37° C. for 2 days under 5% CO2 in Essential 8 medium (Gibco) (10 cm dish; 8 ml, 24-well plate; 0.5 ml) supplemented with BMP4 (80 ng/ml), VEGF (80 ng/ml), and IWP-2 (2 μM) (Days 0 to 2).
iPS cell colonies were formed as a control in the same manner as in [1] and [2]. Then, the obtained colonies were cultured at 37° C. for 2 days under 5% CO2 in Essential 8 medium (Gibco) (10 cm dish; 8 ml, 24-well plate; 0.5 ml) supplemented with BMP4 (80 ng/ml) and VEGF (80 ng/ml) (Days 0 to 2).
After induction of differentiation in the step of Days 0 to 2 in [1] or [2], the medium was removed, and the cells were washed once with PBS(−) (Gibco). Then, 4% paraformaldehyde was added at a volume of 500 μl/24 wells to the cells and left at room temperature for 15 minutes. Then, the cells were washed three times with PBS(−) and preserved overnight at 4° C. Then, PROTEIN BLOCK SERUM-FREE blocking solution [DAKO, X909] was added at a volume of 500 μl/24 wells to the cells and left at room temperature for 60 minutes for blocking. Then, a primary antibody ( 1/100 Anti-GATA6 (Abcam plc, ab22600), 1/50 Anti-Brachyury T (R&D Systems, Inc., AF2085), 1/400 Anti-Sox2 (CST, 3579P2), 1/100 Anti-CDX2 (R&D Systems, Inc., MAB3665), and 1/50 Anti-AP-2a (Santa Cruz Biotechnology Inc., sc-12726)) against the target antigen was added to a 1% blocking solution in PBS(−). The primary antibody solution was added at a volume of 500 μl/24 wells and left standing at room temperature for 60 minutes or overnight at 4° C. Subsequently, the cells were washed three times with PBS(−). […] The processing of the obtained images and quantitative analysis were carried out using image analysis software “Fiji”.

Assay [2] has the same test system. Briefly: Differentiation marker analysis of cell cluster by immunocytostaining after Wnt signal-activating culture step (Day 2). The procedure: Human iPS cells (625A4; Center for iPS Cell Research and Application (CiRA), Kyoto University) were cultured at 37° C. for 6 to 7 days under 5% CO2 in AK02N (Ajinomoto Co., Inc.) (10 cm dish; 8 ml, 24-well plate; 0.5 ml) to form iPS cell colonies of 500 to 700 μm in diameter. The obtained colonies were cultured at 37° C. for 2 days under 5% CO2 in Essential 8 medium (Gibco) (10 cm dish; 8 ml, 24-well plate; 0.5 ml) supplemented with BMP4 (80 ng/ml), VEGF (80 ng/ml), and CHIR99021 (2 μM) (Days 0 to 2). iPS cell colonies were formed as a control in the same manner as in [1] and [2]. Then, the obtained colonies were cultured at 37° C. for 2 days under 5% CO2 in Essential 8 medium (Gibco) (10 cm dish; 8 ml, 24-well plate; 0.5 ml) supplemented with BMP4 (80 ng/ml) and VEGF (80 ng/ml) (Days 0 to 2). After induction of differentiation in the step of Days 0 to 2 in [1] or [2], the medium was removed, and the cells were washed once with PBS(−) (Gibco). Then, 4% paraformaldehyde was added at a volume of 500 μl/24 wells to the cells and left at room temperature for 15 minutes. Then, the cells were washed three times with PBS(−) and preserved overnight at 4° C. Then, PROTEIN BLOCK SERUM-FREE blocking solution [DAKO, X909] was added at a volume of 500 μl/24 wells to the cells and left at room temperature for 60 minutes for blocking. Then, a primary antibody ( 1/100 Anti-GATA6 (Abcam plc, ab22600), 1/50 Anti-Brachyury T (R&D Systems, Inc., AF2085), 1/400 Anti-Sox2 (CST, 3579P2), 1/100 Anti-CDX2 (R&D Systems, Inc., MAB3665), and 1/50 Anti-AP-2a (Santa Cruz Biotechnology Inc., sc-12726)) against the target antigen was added to a 1% blocking solution in PBS(−). The primary antibody solution was added at a volume of 500 μl/24 wells and left standing at room temperature for 60 minutes or overnight at 4° C. Subsequently, the cells were washed three times with PBS(−). […] The processing of the obtained images and quantitative analysis were carried out using image analysis software “Fiji”.

Assay [3] relates to Human iPS cells (625A4) derived cell population. Briefly: Differentiation marker analysis of cell population by immunocytostaining (Brachyury, CD34; Day 6). As to conditions: cell cluster obtained with CHIR99021 2 μM (Days 0 to 2), further differentiated; cell population of Day 6. As to the method: Following the preparation of human yolk sac mesoderm cells in [1], the medium was replaced with Essential 6 medium (Gibco) (10 cm dish; 8 ml) supplemented with VEGF (80 ng/ml), FGF2 (25 ng/ml), SCF (50 ng/ml), and SB431542 (2 μM), and hemangioblasts were induced by further culture at 37° C. for 2 days under 5% CO2. Then, the medium was replaced with Stempro-34 SFM (Gibco) (10 cm dish; 8 ml) supplemented with VEGF (80 ng/ml), SCF (50 ng/ml), Flt-3L (50 ng/ml), IL-3 (50 ng/ml), IL-6 (50 ng/ml), and TPO (5 ng/ml), and the cells were cultured at 37° C. for 2 days under 5% CO2. Then, the medium was replaced with a medium of the composition described above except for VEGF, and CD34-positive and CD32-positive vitelline venous hemogenic endothelial cells were induced by culture at 37° C. for 2 days under 5% CO2. After induction of differentiation of the step of Days 4 to 6 in [4], immunocytostaining was performed by the same procedures as in [3] except that the primary antibody used was changed to 1/50 Anti-CD34 (Abcam plc, ab81289).

For assay [4] the test system is unchanged. Briefly: Differentiation marker analysis using flow cytometry (CD34, CD32; Day 8). The note with it: cell cluster obtained with CHIR99021 2 μM (Days 0 to 2), further differentiated; cell population of Day 8; compared with control (−). The procedure: Following the preparation of human yolk sac mesoderm cells in [1], the medium was replaced with Essential 6 medium (Gibco) (10 cm dish; 8 ml) supplemented with VEGF (80 ng/ml), FGF2 (25 ng/ml), SCF (50 ng/ml), and SB431542 (2 μM), and hemangioblasts were induced by further culture at 37° C. for 2 days under 5% CO2. Then, the medium was replaced with Stempro-34 SFM (Gibco) (10 cm dish; 8 ml) supplemented with VEGF (80 ng/ml), SCF (50 ng/ml), Flt-3L (50 ng/ml), IL-3 (50 ng/ml), IL-6 (50 ng/ml), and TPO (5 ng/ml), and the cells were cultured at 37° C. for 2 days under 5% CO2. Then, the medium was replaced with a medium of the composition described above except for VEGF, and CD34-positive and CD32-positive vitelline venous hemogenic endothelial cells were induced by culture at 37° C. for 2 days under 5% CO2. After induction of differentiation of vitelline venous hemogenic endothelial cells by the step of Days 6 to 8 in [4], the medium was removed, and the cells were washed twice with PBS(−) (Gibco). Then, TrypLE Express (Gibco) was added at a volume of 3 mL/dish and left at 37° C. for 15 minutes. Then, the cells were recovered into a 15 mL tube while dissociated by pipetting with P1000 micropipette. […] The differentiation markers were analyzed by BD LSRFortessa flow cytometry using the obtained antibody-stained cell suspension. Data obtained from flow cytometry was analyzed using FlowJo.
(A flow cytometer gives signals particle by particle.)

Regarding `Cc1ccc2nc(NC(=O)CSc3nc4c(c(=O)n3-c3ccccc3)SCC4)sc2c1` [IWP-2], the “GATA6-positive cells in an outer edge part of the cell cluster” value in assay [1] (2 μM, Days 0 to 2, compared with +CHIR) is “small number of GATA6-positive cells”. For the same molecule, the “Enrichment of CDX2-positive and TFAP2A-positive AECs in the cell cluster” value in assay [1] (IWP-2 2 μM with BMP4 and VEGF in Essential 8, Days 0 to 2, compared with no addition (−)) is on record as “enriched”. The “GATA6 status of the CDX2-positive region (+IWP-2)” value in assay [1] (IWP-2 2 μM, Days 0 to 2) is “GATA6-negative”.

As to `Cc1c[nH]c(-c2cnc(NCCNc3ccc(C#N)cn3)nc2-c2ccc(Cl)cc2Cl)n1` [CHIR99021], in assay [2] (CHIR99021 2 μM with BMP4 and VEGF in Essential 8, Days 0 to 2, cell cluster of Day 2, compared with no addition (−)), the “Enrichment of Brachyury-negative, GATA6-positive, and FOXF1-positive YSMCs in the cell cluster” value is reported as “enriched”. For the same molecule, the “Morphology of the cell cluster under an optical microscope versus cell cluster obtained by a conventional method” value in assay [2] (CHIR99021 2 μM, 2 days after the start of culture) is given as “differ morphologically”. Moreover, in assay [2] (CHIR99021 2 μM, Days 0 to 2, cell cluster of Day 2), the “GATA6 status of the CDX2-negative region (+CHIR)” value was “GATA6-positive”. For the same molecule, the “Appearance of CD34-positive vascular endothelial progenitor cells from YSM region in the outer edge part” value in assay [3] is reported as “Rich CD34-positive vascular endothelial progenitor cells were confirmed to appear”. In addition, the “CD34-positive and CD32-positive vitelline venous hemogenic endothelial cells produced” value in assay [4] was “more”.
